According to US4647693A, “Antibiotics DO-248-A and B and process for preparing the same” (Shionogi & Co., Ltd., priority 1984, dated 1987):
Converted amounts (≈) assume the structure as drawn.

Experiments:
[1] = system: M. tuberculosis R-18 (Kanamycin and rifanpicin resistant strain); assay: MIC, two-fold dilution, Dubos Tween albumin liquid medium; format: cell-based; settings: Mycobacterium tuberculosis, 336 h, read-out: minimal inhibitory concentration (MIC)
[2] = system: M. tuberculosis R-15 (Rifanpicin resistant strain); assay: as above; format: cell-based; settings: Mycobacterium tuberculosis, 336 h, read-out: minimal inhibitory concentration (MIC)

CC(C)c1c(O)cc(C(NC(=N)N)C(=O)NCC(=O)O)cc1O (stereo not drawn) [DO-248-A, N-(α-guanidino-3,5-dihydroxy-4-isopropylphenylacetyl)glycine]
MIC [1]: 0.025 µg/mL (≈ 0.0771 µM)
MIC [2]: 0.1 µg/mL (≈ 0.308 µM)

NC[C@H]1O[C@H](O[C@H]2[C@H](O)[C@@H](O[C@H]3O[C@H](CO)[C@@H](O)[C@H](N)[C@H]3O)[C@H](N)C[C@@H]2N)[C@H](O)[C@@H](O)[C@@H]1O [KM, kanamycin]
MIC [1]: > 25 µg/mL
MIC [2]: < 0.001 µg/mL

CO[C@H]1/C=C/O[C@@]2(C)Oc3c(C)c(O)c4c(O)c(c(/C=N/N5CCN(C)CC5)c(O)c4c3C2=O)NC(=O)/C(C)=C\C=C\[C@H](C)[C@H](O)[C@@H](C)[C@@H](O)[C@@H](C)[C@H](OC(C)=O)[C@@H]1C [RFP, rifampicin]
MIC [1]: > 25 µg/mL
MIC [2]: > 25 µg/mL
